A short description of data set [1]: Human microsome stability assay. It counts as in vitro ADME. As to conditions: 1 µM test compound, 0.5 mg/mL liver microsomal protein, 37° C., pH 7.4. The protocol:
The human microsomal stability assay is used for early assessment of metabolic stability of a test compound in human liver microsomes.
Human liver microsomes (Cat.NO.: 452117, Corning, USA;Cat.NO.:H2610, Xenotech, USA) were preincubated with test compound for 10 minutes at 37° C. in 100 mM potassium phosphate buffer, pH 7.4. The reactions were initiated by adding NADPH regenerating system. The final incubation mixtures contained 1 µM test compound, 0.5 mg/mL liver microsomal protein, 1 mM MgCl2, 1 mM NADP, 1 unit/mL isocitric dehydrogenase and 6 mM isocitric acid in 100 mM potassium phosphate buffer, pH 7.4. After incubation times of 0, 3, 6, 9, 15 and 30 minutes at 37° C., 300 µL of cold acetonitrile (including internal standard) was added to 100 µL incubation mixture to terminate the reaction. Following precipitation and centrifugation, the amount of compound remaining in the samples were determined by LC-MS/MS. Controls of no NADPH regenerating system at zero and 30 minutes were also prepared and analyzed.

The target in data set [2] is T1, TLR9 (Homo sapiens, UniProt Q9NR96).
T1 sequence (Q9NR96 26-1032): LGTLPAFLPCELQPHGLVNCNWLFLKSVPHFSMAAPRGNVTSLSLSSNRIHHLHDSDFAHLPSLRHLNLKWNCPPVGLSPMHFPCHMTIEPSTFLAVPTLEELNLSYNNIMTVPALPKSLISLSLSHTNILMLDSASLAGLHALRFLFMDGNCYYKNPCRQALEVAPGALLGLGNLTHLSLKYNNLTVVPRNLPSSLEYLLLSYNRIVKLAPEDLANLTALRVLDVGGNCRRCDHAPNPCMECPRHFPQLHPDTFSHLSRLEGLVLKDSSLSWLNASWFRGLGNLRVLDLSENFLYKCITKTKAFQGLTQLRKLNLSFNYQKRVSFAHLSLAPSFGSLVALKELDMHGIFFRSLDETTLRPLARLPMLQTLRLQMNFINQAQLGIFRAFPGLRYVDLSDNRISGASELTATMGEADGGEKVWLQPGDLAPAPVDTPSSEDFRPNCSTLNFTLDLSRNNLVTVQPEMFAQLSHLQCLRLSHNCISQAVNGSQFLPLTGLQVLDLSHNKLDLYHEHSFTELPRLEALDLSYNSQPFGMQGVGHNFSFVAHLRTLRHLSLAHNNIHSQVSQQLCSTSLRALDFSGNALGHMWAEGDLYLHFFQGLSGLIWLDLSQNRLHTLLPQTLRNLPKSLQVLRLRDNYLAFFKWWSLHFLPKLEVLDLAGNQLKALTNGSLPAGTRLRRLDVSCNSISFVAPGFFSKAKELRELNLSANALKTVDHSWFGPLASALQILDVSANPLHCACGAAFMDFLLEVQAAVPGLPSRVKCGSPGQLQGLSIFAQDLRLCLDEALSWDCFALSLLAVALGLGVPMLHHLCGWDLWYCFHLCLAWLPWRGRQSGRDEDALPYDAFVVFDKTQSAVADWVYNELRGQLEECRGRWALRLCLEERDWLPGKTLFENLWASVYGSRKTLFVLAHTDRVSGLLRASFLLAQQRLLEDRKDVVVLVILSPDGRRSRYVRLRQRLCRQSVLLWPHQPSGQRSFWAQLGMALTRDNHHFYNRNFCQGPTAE
As to the kind of experiment: HEK293-Blue-hTLR-9 cells assay. The note with it: HEK293-Blue-hTLR9 cells, ODN2006 stimulation, 20 hrs, SEAP reporter; read-out: HEK/hTLR9 IC50. Also noted: host or cells: HEK293 (HEK-Blue hTLR9). It counts as cell-based. The text has this:
A stable HEK293-Blue-hTLR-9 cell line was purchased from InvivoGen (Cat.#: hkb-htlr9, San Diego, California, USA). These cells were originally designed for studying the stimulation of human TLR9 by monitoring the activation of NF-κB. A SEAP (secreted embryonic alkaline phosphatase) reporter gene was placed under the control of the IFN-β minimal promoter fused to five NF-κB and AP-1-binding sites. The SEAP was induced by activating NF-κB and AP-1 via stimulating HEK-Blue hTLR9 cells with TLR9 ligands. Therefore the reporter expression was declined by TLR9 antagonist under the stimulation of a ligand, such as ODN2006 (Cat.#: tlrl-2006-1, Invivogen, San Diego, California, USA), for incubation of 20 hrs. The cell culture supernatant SEAP reporter activity was determined using QUANTI-Blue™ kit (Cat.#: rep-qb1, Invivogen, San Diego, California, USA) at a wavelength of 640 nm, a detection medium that turns purple or blue in the presence of alkaline phosphatase.
HEK293-Blue-hTLR9 cells were incubated at a density of 250,000~450,000 cells/mL in a volume of 170 µL in a 96-well plate in Dulbecco’s Modified Eagle’s medium (DMEM) containing 4.5 g/L glucose, 50 U/mL penicillin, […], […], 2 mM L-glutamine, 10% (v/v) heat-inactivated fetal bovine serum with addition of 20 µL test compound in a serial dilution in the presence of final DMSO at 1% and 10 µL of 20uM ODN2006 in above DMEM, perform incubation under 37° C. in a CO2 incubator for 20 hrs. Then 20 µL of the supernatant from each well was incubated with 180 µL Quanti-blue substrate solution at 37° C. for 2 h and the absorbance was read at 620 \~655 nm using a spectrophotometer. The signaling pathway that TLR9 activation leads to downstream NF-κB activation has been widely accepted, and therefore similar reporter assay was modified for evaluating TLR9 antagonist.

Take `Cc1cc(-c2ccc(N3CCN(Cc4ncc(N5CCNCC5)cn4)CC3)nc2C(C)C)cn(C)c1=O` [Example 12, 5-[2-isopropyl-6-[4-[(5-piperazin-1-ylpyrimidin-2-yl)methyl]piperazin-1-yl]-3-pyridyl]-1,3-dimethyl-pyridin-2-one]: in data set [1], the “Clearance of Human microsome” value is given as 8.8 mL/min/kg. The IC50 in data set [2] was 763 nM.

With `Cc1cc(-c2ccc(N3CCC(N4CCNCC4)CC3)nc2C(C)C)cn(C)c1=O` [Example 18, 5-[2-isopropyl-6-(4-piperazin-1-yl-1-piperidyl)-3-pyridyl]-1,3-dimethyl-pyridin-2-one], the “Clearance of Human microsome” value in data set [1] came to 7.5 mL/min/kg. Also, the IC50 in data set [2] worked out at 798 nM.

For the molecule `Cc1cc(-c2ccc(N3CCN(Cc4cccc(N5CCNCC5)c4)CC3)nc2C(C)C)cn(C)c1=O` [Example 14, 5-[2-isopropyl-6-[4-[(3-piperazin-1-ylphenyl)methyl]piperazin-1-yl]-3-pyridyl]-1,3-dimethyl-pyridin-2-one], the “Clearance of Human microsome” value in data set [1] came out at 8.3 mL/min/kg. The IC50 in data set [2] was found to be 143 nM.

For `Cc1cc(-c2ccc(N3CCN(Cc4ccc(N5CCNCC5)cn4)CC3)nc2C(C)C)cn(C)c1=O` [Example 7, 5-[2-isopropyl-6-[4-[(5-piperazin-1-yl-2-pyridyl)methyl]piperazin-1-yl]-3-pyridyl]-1,3-dimethyl-pyridin-2-one], the “Clearance of Human microsome” value in data set [1] was 7.4 mL/min/kg. Also, the IC50 in data set [2] is 143 nM.

Turning to `Cc1cc(-c2ccc(N3CCN(c4ccc5c(n4)CCNC5)CC3)nc2C(C)C)cn(C)c1=O` [Example 15, 5-[2-isopropyl-6-[4-(5,6,7,8-tetrahydro-1,6-naphthyridin-2-yl)piperazin-1-yl]-3-pyridyl]-1,3-dimethyl-pyridin-2-one], the “Clearance of Human microsome” value in data set [1] came to 8.7 mL/min/kg. Besides, the IC50 in data set [2] is 803 nM.

On to `CCc1nc(N2CCN(Cc3cnc(N4CC5(CNCCO5)C4)nc3)CC2)ccc1-c1cc(C)c(=O)n(C)c1` [Example 1, 5-[2-ethyl-6-[4-[[2-(5-oxa-2,8-diazaspiro[3.5]nonan-2-yl)pyrimidin-5-yl]methyl]piperazin-1-yl]-3-pyridyl]-1,3-dimethyl-pyridin-2-one], for which, in data set [1], the “Clearance of Human microsome” value worked out at 6.5 mL/min/kg. The IC50 in data set [2] is 700 nM.

Regarding `Cc1cc(-c2ccc(N3CCN(Cc4cnc(N5CCNCC5)cn4)CC3)nc2C(C)C)cn(C)c1=O` [Example 8, 5-[2-isopropyl-6-[4-[(5-piperazin-1-ylpyrazin-2-yl)methyl]piperazin-1-yl]-3-pyridyl]-1,3-dimethyl-pyridin-2-one], the “Clearance of Human microsome” value in data set [1] turned out to be 8.3 mL/min/kg. Also, the IC50 in data set [2] worked out at 176 nM.

Turning to `Cc1cc(-c2ccc(N3CCN(Cc4cnc(N5CCNCC5)nc4)CC3)nc2C(C)C)cn(C)c1=O` [Example 9, 5-[2-isopropyl-6-[4-[(2-piperazin-1-ylpyrimidin-5-yl)methyl]piperazin-1-yl]-3-pyridyl]-1,3-dimethyl-pyridin-2-one], the “Clearance of Human microsome” value in data set [1] is 7.8 mL/min/kg. Besides, the IC50 in data set [2] amounted to 183 nM.
